In brackets after ≈: the same amount, converted by molar mass.
What was measured:
Type in all cases: cell-based
[1] = test system: Bacillus subtilis JCM 2499; assay: in vitro antibacterial activity, agar plate dilution method (MIC); settings: JCM2499, read-out: Antimicrobial spectrum MIC
Description: (§1) The in vitro antibacterial activities of the compounds provided by the present invention were tested by a standard method of Chemotherapy Society of Japan, i.e. an agar plate dilution method disclosed in CHEMOTHERAPY Vol. 29, pages 76–79, 1981, and the activities of them on anaerobic bacteria were tested by a method disclosed in CHEMOTHERAPY Vol. 27, 559–590, 1979. The results were shown in terms of the minimum inhibition concentration (MIC, μg/ml) for the growth of the bacteria.

[2] = test system: Branhamella catarrhalis IID 5233; assay: as above; settings: Moraxella catarrhalis, IID5233, read-out: Antimicrobial spectrum MIC
Description: as §1

[3] = test system: Enterococcus faecalis CSJ 1212; assay: as above; settings: CSJ1212, read-out: Antimicrobial spectrum MIC
Description: as §1

[4] = test system: Enterococcus faecalis RIMD 3116001; assay: as above; settings: RIMD3116001, read-out: Antimicrobial spectrum MIC
Description: as §1

[5] = test system: Escherichia coli IFO 12734; assay: as above; settings: IFO12734, read-out: Antimicrobial spectrum MIC
Description: as §1

[6] = test system: Haemophilus influenzae IID 984; assay: as above; settings: IID984, read-out: Antimicrobial spectrum MIC
Description: as §1

[7] = test system: Klebsiella pneumoniae IID 865; assay: as above; settings: IID865, read-out: Antimicrobial spectrum MIC
Description: as §1

[8] = test system: Micrococcus luteus KI 3122; assay: as above; settings: KI3122, read-out: Antimicrobial spectrum MIC
Description: as §1

[9] = test system: Pseudomonas aeruginosa CSJ 1853; assay: as above; settings: CSJ1853, read-out: Antimicrobial spectrum MIC
Description: as §1

[10] = test system: Staphylococcus aureus Clin-211(MRSA); assay: as above; settings: read-out: Antimicrobial spectrum MIC
Description: as §1

[11] = test system: Staphylococcus aureus IFO 13276; assay: as above; settings: IFO13276, read-out: Antimicrobial spectrum MIC
Description: as §1

[12] = test system: Staphylococcus aureus IID 803(Smith); assay: as above; settings: IID803, read-out: Antimicrobial spectrum MIC
Description: as §1

[13] = test system: Staphylococcus aureus JCM 2874; assay: as above; settings: JCM2874, read-out: Antimicrobial spectrum MIC
Description: as §1

[14] = test system: Staphylococcus epidermidis IFO 12993; assay: as above; settings: IFO12993, read-out: Antimicrobial spectrum MIC
Description: as §1

[15] = test system: Streptococcus pneumoniae IID 553; assay: as above; settings: IID553, read-out: Antimicrobial spectrum MIC
Description: as §1

[16] = test system: Bacteroides fragilis GAI 0675; assay: in vitro antibacterial activity on anaerobic bacteria (MIC); settings: GAI0675; Bacteroides fragilis GAI 0675, anaerobic; read-out: Antimicrobial spectrum MIC
Description: as §1

[17] = test system: Bacteroides thetaiotaomicron ATCC 29741; assay: as above; settings: ATCC29741; Bacteroides thetaiotaomicron ATCC 29741, anaerobic; read-out: Antimicrobial spectrum MIC
Description: as §1

[18] = test system: Propionibacterium acnes JCM 6425; assay: as above; settings: Cutibacterium acnes, JCM6425; Propionibacterium acnes JCM 6425, anaerobic; read-out: Antimicrobial spectrum MIC
Description: as §1

MIC [1] | MIC [2] | MIC [3] | MIC [4] | MIC [5] | MIC [6] | MIC [7] | MIC [8] | MIC [9] | MIC [10] | MIC [11] | MIC [12] | MIC [13] | MIC [14] | MIC [15] | MIC [16] | MIC [17] | MIC [18] | Structure (SMILES)
0.016 µg/mL (≈ 0.0459 µM) | 0.063 µg/mL (≈ 0.181 µM) | 0.25 µg/mL (≈ 0.718 µM) | 0.25 µg/mL (≈ 0.718 µM) | 0.063 µg/mL (≈ 0.181 µM) | 0.016 µg/mL (≈ 0.0459 µM) | 0.008 µg/mL (≈ 0.023 µM) | 0.5 µg/mL (≈ 1.44 µM) | 0.5 µg/mL (≈ 1.44 µM) | 0.5 µg/mL (≈ 1.44 µM) | 0.031 µg/mL (≈ 0.089 µM) | 0.031 µg/mL (≈ 0.089 µM) | 0.031 µg/mL (≈ 0.089 µM) | 0.063 µg/mL (≈ 0.181 µM) | 0.125 µg/mL (≈ 0.359 µM) | 0.25 µg/mL (≈ 0.718 µM) | 0.5 µg/mL (≈ 1.44 µM) | 0.125 µg/mL (≈ 0.359 µM) | Cc1c(-c2ccc(CN)cc2)ccn2c(=O)c(C(=O)O)cc(C3CC3)c12 [Example 24, 8-(4-aminomethylphenyl)-1-cyclopropyl-9-methyl-4-oxo-4H-quinolizine-3-carboxylic acid]
≤ 0.004 µg/mL | 0.016 µg/mL (≈ 0.0479 µM) | 0.125 µg/mL (≈ 0.374 µM) | 0.25 µg/mL (≈ 0.748 µM) | 0.125 µg/mL (≈ 0.374 µM) | 0.016 µg/mL (≈ 0.0479 µM) | 0.008 µg/mL (≈ 0.0239 µM) | 0.125 µg/mL (≈ 0.374 µM) | 0.25 µg/mL (≈ 0.748 µM) | 0.125 µg/mL (≈ 0.374 µM) | 0.008 µg/mL (≈ 0.0239 µM) | 0.008 µg/mL (≈ 0.0239 µM) | 0.008 µg/mL (≈ 0.0239 µM) | 0.016 µg/mL (≈ 0.0479 µM) | 0.25 µg/mL (≈ 0.748 µM) | 0.125 µg/mL (≈ 0.374 µM) | 0.25 µg/mL (≈ 0.748 µM) | 0.063 µg/mL (≈ 0.188 µM) | Cc1c(-c2cccc(N)c2)ccn2c(=O)c(C(=O)O)cc(C3CC3)c12 [Example 26, 8-(3-aminophenyl)-1-cyclopropyl-9-methyl-4-oxo-4H-quinolizine-3-carboxylic acid]
≤ 0.004 µg/mL | ≤ 0.004 µg/mL | 0.031 µg/mL (≈ 0.0927 µM) | 0.063 µg/mL (≈ 0.188 µM) | 0.063 µg/mL (≈ 0.188 µM) | 0.008 µg/mL (≈ 0.0239 µM) | ≤ 0.004 µg/mL | 0.063 µg/mL (≈ 0.188 µM) | 0.25 µg/mL (≈ 0.748 µM) | 0.031 µg/mL (≈ 0.0927 µM) | ≤ 0.004 µg/mL | ≤ 0.004 µg/mL | ≤ 0.004 µg/mL | 0.008 µg/mL (≈ 0.0239 µM) | 0.125 µg/mL (≈ 0.374 µM) | 0.031 µg/mL (≈ 0.0927 µM) | 0.125 µg/mL (≈ 0.374 µM) | 0.031 µg/mL (≈ 0.0927 µM) | Cc1c(-c2ccc(N)cc2)ccn2c(=O)c(C(=O)O)cc(C3CC3)c12 [Example 27, 8-(4-Aminophenyl)-1-cyclopropyl-9-methyl-4-oxo-4H-quinolizine-3-carboxylic acid]
≤ 0.004 µg/mL | 0.031 µg/mL (≈ 0.0858 µM) | 0.125 µg/mL (≈ 0.346 µM) | 0.25 µg/mL (≈ 0.692 µM) | 0.25 µg/mL (≈ 0.692 µM) | 0.25 µg/mL (≈ 0.692 µM) | 0.031 µg/mL (≈ 0.0858 µM) | 0.25 µg/mL (≈ 0.692 µM) | 2 µg/mL (≈ 5.53 µM) | 0.125 µg/mL (≈ 0.346 µM) | 0.008 µg/mL (≈ 0.0221 µM) | 0.008 µg/mL (≈ 0.0221 µM) | 0.008 µg/mL (≈ 0.0221 µM) | 0.031 µg/mL (≈ 0.0858 µM) | 0.25 µg/mL (≈ 0.692 µM) | 0.125 µg/mL (≈ 0.346 µM) | 0.25 µg/mL (≈ 0.692 µM) | – | CC(=O)c1ccc(-c2ccn3c(=O)c(C(=O)O)cc(C4CC4)c3c2C)cc1 [Example 28, 8-(4-Acetylphenyl)-1-cyclopropyl-9-methyl-4-oxo-4H-quinolizine-3-carboxylic acid]
≤ 0.004 µg/mL | 0.031 µg/mL (≈ 0.093 µM) | 0.25 µg/mL (≈ 0.75 µM) | 0.5 µg/mL (≈ 1.5 µM) | 0.125 µg/mL (≈ 0.375 µM) | 0.125 µg/mL (≈ 0.375 µM) | 0.031 µg/mL (≈ 0.093 µM) | 0.125 µg/mL (≈ 0.375 µM) | 0.5 µg/mL (≈ 1.5 µM) | 0.125 µg/mL (≈ 0.375 µM) | 0.008 µg/mL (≈ 0.024 µM) | 0.008 µg/mL (≈ 0.024 µM) | 0.008 µg/mL (≈ 0.024 µM) | 0.016 µg/mL (≈ 0.048 µM) | 0.5 µg/mL (≈ 1.5 µM) | 0.25 µg/mL (≈ 0.75 µM) | 1 µg/mL (≈ 3 µM) | 0.25 µg/mL (≈ 0.75 µM) | Cc1ccc(-c2ccn3c(=O)c(C(=O)O)cc(C4CC4)c3c2C)cc1 [Example 31, 1-Cyclopropyl-9-methyl-4-oxo-8-p-tolyl-4H-quinolizine-3-carboxylic acid]
≤ 0.004 µg/mL | 0.031 µg/mL (≈ 0.0885 µM) | 0.125 µg/mL (≈ 0.357 µM) | 0.25 µg/mL (≈ 0.714 µM) | 0.25 µg/mL (≈ 0.714 µM) | 0.063 µg/mL (≈ 0.18 µM) | 0.016 µg/mL (≈ 0.0457 µM) | 0.25 µg/mL (≈ 0.714 µM) | 1 µg/mL (≈ 2.85 µM) | 0.125 µg/mL (≈ 0.357 µM) | 0.008 µg/mL (≈ 0.0228 µM) | 0.008 µg/mL (≈ 0.0228 µM) | 0.016 µg/mL (≈ 0.0457 µM) | 0.016 µg/mL (≈ 0.0457 µM) | 0.5 µg/mL (≈ 1.43 µM) | 0.063 µg/mL (≈ 0.18 µM) | 0.25 µg/mL (≈ 0.714 µM) | 0.008 µg/mL (≈ 0.0228 µM) | COc1ccc(-c2ccn3c(=O)c(C(=O)O)cc(C4CC4)c3c2C)cn1 [Example 32, 1-Cyclopropyl-8-(6-methoxypyridin-3-yl)-9-methyl-4-oxo-4H-quinolizine-3-carboxylic acid]

Source: patent publication US7223773B2, “4-oxoquinolizine antibacterial agent having 2-pyridone skeleton as partial structure” (Salo Pharmaceutical Co., Ltd., priority 2001, dated 2007)
